± gives the uncertainty stated by the source.
Experiment: xn = mol fraction of the nth substance listed

CC(Cl)(Cl)Cl + c1ccccc1
303.15 K, 101 kPa
Conditions | viscosity [mPa·s]
x1 = 0.1318 | 0.5946 ± 0.015
x1 = 0.2306 | 0.614 ± 0.016
x1 = 0.3381 | 0.6341 ± 0.016
x1 = 0.4104 | 0.6461 ± 0.017
x1 = 0.4894 | 0.6588 ± 0.017
x1 = 0.5844 | 0.6709 ± 0.017
x1 = 0.6716 | 0.6831 ± 0.018
x1 = 0.7484 | 0.6926 ± 0.018
x1 = 0.8648 | 0.706 ± 0.018
x1 = 0.9221 | 0.7138 ± 0.018

CCCCCBr + c1ccccc1
308.15 K, 101 kPa
Conditions | viscosity [mPa·s]
x2 = 0.0961 | 0.6279 ± 0.0051
x2 = 0.2061 | 0.6028 ± 0.0048
x2 = 0.2972 | 0.5854 ± 0.0045
x2 = 0.3978 | 0.5636 ± 0.0043
x2 = 0.4978 | 0.5452 ± 0.0041
x2 = 0.5868 | 0.5316 ± 0.0039
x2 = 0.7022 | 0.5149 ± 0.0037
x2 = 0.8752 | 0.5028 ± 0.0036
x2 = 0.9275 | 0.503 ± 0.0036

CCCC[N+](CCCC)(CCCC)CCCC.[OH-] + CC(=O)N(C)C
viscosity [mPa·s], 101 kPa
Conditions | 298.15 K | 303.15 K | 308.15 K | 313.15 K
x1 = 0.0124 | 1.15 | 1.05 | 0.97 | 0.9
x1 = 0.0388 | 1.63 | 1.47 | 1.38 | 1.23
x1 = 0.0678 | 2.15 | 1.97 | 1.81 | 1.64
x1 = 0.0996 | 2.67 | 2.47 | 2.25 | 2.06
x1 = 0.1348 | 3.16 | 2.96 | 2.7 | 2.49
x1 = 0.1538 | 3.44 | 3.22 | 2.96 | 2.71
x1 = 0.1951 | 3.94 | 3.74 | 3.48 | 3.21
x1 = 0.2666 | 4.74 | 4.48 | 4.21 | 3.94
x1 = 0.3529 | 5.43 | 5.15 | 4.9 | 4.62
x1 = 0.4589 | 6.02 | 5.73 | 5.48 | 5.21
x1 = 0.5925 | 6.45 | 6.2 | 5.97 | 5.73
x1 = 0.7026 | 6.63 | 6.37 | 6.14 | 5.93
x1 = 0.8358 | 6.66 | 6.42 | 6.19 | 5.99

CNC[C@H](O)c1cccc(O)c1.Cl + CO
viscosity [mPa·s], 100 kPa
Conditions | 293.15 K | 298.15 K | 303.15 K | 308.15 K | 313.15 K | 318.15 K | 323.15 K
x1 = 0.00048 | 0.6061 ± 0.0073 | 0.5699 ± 0.0072 | 0.5374 ± 0.0071 | 0.4992 ± 0.007 | 0.4719 ± 0.0069 | 0.4428 ± 0.0068 | 0.4161 ± 0.0067
x1 = 0.00096 | 0.6213 ± 0.0073 | 0.5836 ± 0.0072 | 0.5482 ± 0.0071 | 0.5108 ± 0.007 | 0.4839 ± 0.0069 | 0.4485 ± 0.0068 | 0.4228 ± 0.0067
x1 = 0.00144 | 0.6373 ± 0.0074 | 0.593 ± 0.0073 | 0.5581 ± 0.0071 | 0.5213 ± 0.007 | 0.4935 ± 0.0069 | 0.4539 ± 0.0068 | 0.4302 ± 0.0068
x1 = 0.00192 | 0.6534 ± 0.0074 | 0.6059 ± 0.0073 | 0.5687 ± 0.0072 | 0.5404 ± 0.0071 | 0.5059 ± 0.007 | 0.466 ± 0.0069 | 0.433 ± 0.0068
x1 = 0.0024 | 0.6642 ± 0.0075 | 0.6216 ± 0.0073 | 0.5828 ± 0.0072 | 0.5593 ± 0.0071 | 0.5182 ± 0.007 | 0.4782 ± 0.0069 | 0.4357 ± 0.0068

COC(=O)c1ccccc1C(=O)OC + C1CCOC1
viscosity [mPa·s], 101 kPa
Conditions | x1 = 0.1001 | x1 = 0.2019 | x1 = 0.2966 | x1 = 0.3989 | x1 = 0.5009 | x1 = 0.5992 | x1 = 0.7006 | x1 = 0.8013 | x1 = 0.9004
293.15 K | 0.7426 ± 0.023 | 1.073 ± 0.033 | 1.505 ± 0.046 | 2.155 ± 0.066 | 3.107 ± 0.095 | 4.313 ± 0.13 | 6.121 ± 0.19 | 8.638 ± 0.26 | 12.37 ± 0.38
298.15 K | 0.7028 ± 0.022 | 0.9986 ± 0.031 | 1.383 ± 0.042 | 1.947 ± 0.06 | 2.756 ± 0.084 | 3.756 ± 0.12 | 5.214 ± 0.16 | 7.181 ± 0.22 | 9.998 ± 0.31
303.15 K | 0.666 ± 0.02 | 0.9314 ± 0.029 | 1.276 ± 0.039 | 1.769 ± 0.054 | 2.463 ± 0.076 | 3.303 ± 0.1 | 4.496 ± 0.14 | 6.063 ± 0.19 | 8.238 ± 0.25
308.15 K | 0.6197 ± 0.019 | 0.8698 ± 0.027 | 1.181 ± 0.036 | 1.616 ± 0.05 | 2.217 ± 0.068 | 2.93 ± 0.09 | 3.92 ± 0.12 | 5.189 ± 0.16 | 6.906 ± 0.21
313.15 K | 0.6531 ± 0.08 | 0.8136 ± 0.025 | 1.097 ± 0.034 | 1.483 ± 0.045 | 2.007 ± 0.062 | 2.619 ± 0.08 | 3.45 ± 0.11 | 4.494 ± 0.14 | 5.87 ± 0.18
318.15 K | 0.557 ± 0.017 | 0.7619 ± 0.023 | 1.021 ± 0.031 | 1.365 ± 0.042 | 1.828 ± 0.056 | 2.357 ± 0.072 | 3.063 ± 0.094 | 3.933 ± 0.12 | 5.056 ± 0.16
323.15 K | 0.4957 ± 0.05 | 0.7137 ± 0.022 | 0.9522 ± 0.029 | 1.261 ± 0.039 | 1.674 ± 0.051 | 2.136 ± 0.066 | 2.739 ± 0.084 | 3.474 ± 0.11 | 4.404 ± 0.14

CCCCCBr + C1CCCCC1
308.15 K, 101 kPa
Conditions | viscosity [mPa·s]
x2 = 0.0975 | 0.6428 ± 0.0052
x2 = 0.1991 | 0.6363 ± 0.005
x2 = 0.2997 | 0.6323 ± 0.0049
x2 = 0.398 | 0.6305 ± 0.0048
x2 = 0.5025 | 0.6321 ± 0.0047
x2 = 0.5837 | 0.6355 ± 0.0046
x2 = 0.695 | 0.645 ± 0.0046
x2 = 0.8018 | 0.6614 ± 0.0046
x2 = 0.9007 | 0.6894 ± 0.0047

O=CO + CN(C)C=O
303.15 K, 101 kPa
Conditions | viscosity [mPa·s]
x1 = 0.1513 | 0.848 ± 0.017
x1 = 0.2841 | 0.986 ± 0.02
x1 = 0.4038 | 1.16 ± 0.024
x1 = 0.6144 | 1.45 ± 0.029
x1 = 0.7869 | 1.58 ± 0.032
x1 = 0.8657 | 1.58 ± 0.032

CC(Cl)(Cl)Cl + CCCCCCCO
303.15 K, 101 kPa
Conditions | viscosity [mPa·s]
x2 = 0.1177 | 0.974 ± 0.023
x2 = 0.2075 | 1.143 ± 0.025
x2 = 0.4385 | 1.666 ± 0.03
x2 = 0.5262 | 1.941 ± 0.032
x2 = 0.5911 | 2.186 ± 0.033
x2 = 0.6407 | 2.407 ± 0.034
x2 = 0.7497 | 2.99 ± 0.037
x2 = 0.8365 | 3.56 ± 0.039
x2 = 0.9206 | 4.198 ± 0.041

O=CC(Br)(Br)Br + CCCCO
viscosity [mPa·s], 101.33 kPa
Conditions | x1 = 0.1 | x1 = 0.2 | x1 = 0.3 | x1 = 0.4 | x1 = 0.5 | x1 = 0.6 | x1 = 0.7 | x1 = 0.797 | x1 = 0.899
293.15 K | 4.71 ± 0.06 | 6.92 ± 0.09 | 10.15 ± 0.13 | 15.97 ± 0.21 | 22.38 ± 0.28 | 21.27 ± 0.27 | 15.08 ± 0.2 | 11.21 ± 0.15 | 9.11 ± 0.12
313.15 K | 2.56 ± 0.04 | 3.84 ± 0.06 | 4.96 ± 0.08 | 7.06 ± 0.12 | 8.81 ± 0.18 | 8.39 ± 0.17 | 6.2 ± 0.11 | 4.97 ± 0.09 | 4.21 ± 0.07

CC(Cl)(Cl)Cl + CCC(C)O
298.15 K, 101 kPa
Conditions | viscosity [mPa·s]
x1 = 0.099 | 2.21 ± 0.017
x1 = 0.2079 | 1.726 ± 0.014
x1 = 0.2768 | 1.46 ± 0.012
x1 = 0.3656 | 1.225 ± 0.01
x1 = 0.5119 | 1.008 ± 0.009
x1 = 0.5786 | 0.94 ± 0.009
x1 = 0.6988 | 0.85 ± 0.008
x1 = 0.78 | 0.808 ± 0.008
x1 = 0.8911 | 0.781 ± 0.008

CC(Cl)(Cl)Cl + CCCCCC
303.15 K, 101 kPa
Conditions | viscosity [mPa·s]
x1 = 0.1033 | 0.3166 ± 0.0083
x1 = 0.2726 | 0.3777 ± 0.0098
x1 = 0.3375 | 0.4016 ± 0.01
x1 = 0.4011 | 0.4253 ± 0.011
x1 = 0.5547 | 0.4864 ± 0.013
x1 = 0.5981 | 0.5047 ± 0.013
x1 = 0.6578 | 0.5318 ± 0.014
x1 = 0.7595 | 0.582 ± 0.015
x1 = 0.8388 | 0.6246 ± 0.016
x1 = 0.9378 | 0.6833 ± 0.018
